Source: PMC12248599, “Exploring the Bioavailability of Red Grape Skin Extract Polyphenols: A Caco-2 Cell Model Study” (Foods, 2025)
Values joined by “and” are separate entries in the source; they are usually repeats but may differ in a detail not shown here. Identical values can stand only once. Marks after values point to notes of the source that are not given here.

Columns and labels:
[1] = Caco-2 monolayer transport (bioavailability) study, AB and BA directions; format: in vitro ADME, Homo sapiens; conditions: human
Outline: (§1)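 Grape skin extract in HBSS (15 or 22 mg/mL) applied to 21-day Caco-2 monolayers (TEER ≥300 Ω cm²) in AB and BA directions; acceptor samples quantified per polyphenol by HPLC-UV. Papp from steady-state flux over 1.12 cm², efflux ratio as Papp(BA)/Papp(AB), plus transport efficiency (C/C0).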

Caco-2 cell monolayer = assay: as above; format: in vitro ADME, Homo sapiens; conditions: for reduction in concentration on the apical (donor) side: 0 to 180 min; for TE (%) transport efficiency: after 180 min
Outline: as §1

[2] = AB experiment, S1 (15 mg/mL GSE)
[3] = AB experiment, S2 (22 mg/mL GSE)
[4] = AB experiment, acceptor side, S1 (15 mg/mL GSE)
[5] = AB experiment, acceptor side, S2 (22 mg/mL GSE)
[6] = AB experiment, donor side, S1 (15 mg/mL GSE)
[7] = AB experiment, donor side, S2 (22 mg/mL GSE)
[8] = BA experiment, acceptor side, S1 (15 mg/mL GSE)
[9] = BA experiment, acceptor side, S2 (22 mg/mL GSE)
[10] = BA experiment, donor side, S1 (15 mg/mL GSE)
[11] = BA experiment, donor side, S2 (22 mg/mL GSE)

efflux ratio at 180 min, 15 mg/mL ([1]; Caco-2, Papp (BA)/Papp (AB), S1 (15 mg/mL GSE), read-out: ER (efflux ratio)): 1.1
efflux ratio at 180 min, 22 mg/mL ([1]; Caco-2, Papp (BA)/Papp (AB), S2 (22 mg/mL GSE), read-out: ER (efflux ratio)): 1.3
efflux ratio at 180 min ([1]; Caco-2, text statement, S1 and S2): > 1
Papp A→B at 180 min, 15 mg/mL ([1]; Caco-2, apical to basolateral, S1 (15 mg/mL GSE)): 1160 ± 20 ×10⁻⁶ cm/s
Papp A→B at 180 min, 22 mg/mL ([1]; Caco-2, apical to basolateral, S2 (22 mg/mL GSE)): 730 ± 40 ×10⁻⁶ cm/s
Papp B→A at 180 min, 15 mg/mL ([1]; Caco-2, basolateral to apical, S1 (15 mg/mL GSE)): 1230 ± 30 ×10⁻⁶ cm/s
Papp B→A at 180 min, 22 mg/mL ([1]; Caco-2, basolateral to apical, S2 (22 mg/mL GSE)): 970 ± 30 ×10⁻⁶ cm/s
reduction in concentration on the apical (donor) side (Caco-2 cell monolayer; [2]): 33.6 ± 0.5%
TE (%) transport efficiency (Caco-2 cell monolayer; [2]): 97 ± 2%
reduction in concentration on the apical (donor) side (Caco-2 cell monolayer; [3]): 28.7 ± 0.9%
TE (%) transport efficiency (Caco-2 cell monolayer; [3]): 60 ± 1% and 60.2 ± 0.9%
Basolateral Side 75 min (Caco-2 cell monolayer; [4]): 6.2 ± 0.1 ^b mg/L
Basolateral Side 90 min (Caco-2 cell monolayer; [4]): 6.7 ± 0.1 ^c mg/L
Basolateral Side 115 min (Caco-2 cell monolayer; [4]): 7.1 ± 0.1 ^c mg/L
Basolateral Side 180 min (Caco-2 cell monolayer; [4]): 7.4 ± 0.1 ^c mg/L
Basolateral Side 75 min (Caco-2 cell monolayer; [5]): 6.4 ± 0.1 ^b mg/L
Basolateral Side 90 min (Caco-2 cell monolayer; [5]): 6.8 ± 0.2 ^c mg/L
Basolateral Side 115 min (Caco-2 cell monolayer; [5]): 7.2 ± 0.2 ^d,c mg/L
Basolateral Side 180 min (Caco-2 cell monolayer; [5]): 7.6 ± 0.2 ^c mg/L
Apical Side 0 min (Caco-2 cell monolayer; [6]): 7.7 ± 0.3 mg/L and 7.7 ± 0.3 ^a mg/L
Apical Side 75 min (Caco-2 cell monolayer; [6]): 7.1 ± 0.2 ^b mg/L
Apical Side 90 min (Caco-2 cell monolayer; [6]): 6.7 ± 0.2 ^b,c mg/L
Apical Side 115 min (Caco-2 cell monolayer; [6]): 6.4 ± 0.2 ^c mg/L
Apical Side 180 min (Caco-2 cell monolayer; [6]): 5.0 ± 0.2 mg/L and 5.1 ± 0.2 ^d mg/L
Apical Side 0 min (Caco-2 cell monolayer; [7]): 12.7 ± 0.3 mg/L and 12.7 ± 0.3 ^a mg/L
Apical Side 75 min (Caco-2 cell monolayer; [7]): 11.8 ± 0.3 ^b mg/L
Apical Side 90 min (Caco-2 cell monolayer; [7]): 11.3 ± 0.3 ^b,c mg/L
Apical Side 115 min (Caco-2 cell monolayer; [7]): 10.6 ± 0.23 ^c mg/L
Apical Side 180 min (Caco-2 cell monolayer; [7]): 9.0 ± 0.2 mg/L and 9.0 ± 0.2 ^d mg/L
detection at the acceptor side (Caco-2 cell monolayer; AB experiments, basolateral side): detected
TE (%) transport efficiency (Caco-2 cell monolayer; BA experiment, S1 (15 mg/mL GSE)): 130 ± 3%
TE (%) transport efficiency (Caco-2 cell monolayer; BA experiment, S2 (22 mg/mL GSE)): 109.0 ± 0.9%
Apical Side 75 min (Caco-2 cell monolayer; [8]): 6.1 ± 0.3 ^b mg/L
Apical Side 90 min (Caco-2 cell monolayer; [8]): 7.4 ± 0.3 ^c mg/L
Apical Side 115 min (Caco-2 cell monolayer; [8]): 8.7 ± 0.4 ^d mg/L
Apical Side 180 min (Caco-2 cell monolayer; [8]): 9.9 ± 0.4 ^c mg/L
Apical Side 75 min (Caco-2 cell monolayer; [9]): 6.8 ± 0.2 ^a,b mg/L
Apical Side 90 min (Caco-2 cell monolayer; [9]): 8.1 ± 0.2 ^b,c mg/L
Apical Side 115 min (Caco-2 cell monolayer; [9]): 9.4 ± 0.3 ^c,d mg/L
Apical Side 180 min (Caco-2 cell monolayer; [9]): 10.6 ± 0.3 ^c mg/L
Basolateral Side 0 min (Caco-2 cell monolayer; [10]): 7.6 ± 0.2 ^a mg/L
Basolateral Side 75 min (Caco-2 cell monolayer; [10]): 7.2 ± 0.2 ^b mg/L
Basolateral Side 90 min (Caco-2 cell monolayer; [10]): 6.9 ± 0.2 ^c mg/L
Basolateral Side 115 min (Caco-2 cell monolayer; [10]): 6.6 ± 0.1 ^d mg/L
Basolateral Side 180 min (Caco-2 cell monolayer; [10]): 6.1 ± 0.1 ^c mg/L
Basolateral Side 0 min (Caco-2 cell monolayer; [11]): 9.8 ± 0.2 ^a mg/L
Basolateral Side 75 min (Caco-2 cell monolayer; [11]): 9.5 ± 0.2 ^b mg/L
Basolateral Side 90 min (Caco-2 cell monolayer; [11]): 9.3 ± 0.2 ^c mg/L
Basolateral Side 115 min (Caco-2 cell monolayer; [11]): 9.1 ± 0.2 ^d mg/L
Basolateral Side 180 min (Caco-2 cell monolayer; [11]): 8.5 ± 0.2 ^c mg/L
detection at the acceptor side (Caco-2 cell monolayer; BA experiments, apical side): detected
Structure (SMILES): O=c1c(O[C@@H]2O[C@H](CO)[C@@H](O)[C@H](O)[C@H]2O)c(-c2ccc(O)cc2)oc2cc(O)cc(O)c12 [K3G, kaempferol-3-glucoside]
